The conditions of data set [1]: mouse, in vivo; cited from earlier work.
In a further data set the test system is fish. The data set is described as follows: treatment of model fish with test substances (drugs arrayed alone or in combination in the water/wells). Type of data set: in vivo. Particulars: monotherapy.

The values below come from patent US20050015823A1, “Screening methods employing fish model assessment of vision” (priority 2001, published 2005).

Excerpt for fish: Fish may be contacted with a test substance, it may be touched or rubbed on their surface or injected into them. A test substance may be added to water in which they are. […] There may be one or multiple fish in each well exposed to the test substance. The test substance may be added prior to the onset of the disease phenotype, concurrent with the onset of the disease phenotype, or subsequent to the onset of the disease phenotype. The same test substance may be added to different wells at different concentration. For example, test substance 1 may be added to well A1 at a concentration of 1 mM, to well A2 at a concentration of 100 uM, to well A3 at a concentration of 10 uM, to well A4 at a concentration of 1 uM and to well A5 at a concentration of 0.1 uM. Then test substance 2 to well B1 etc. The panel of test substances may be known drugs or new chemical entities.
Additionally, the test substances may be added in combination. For example, well A2 may contain test substance 1 ‘and 2, well A3 test substance 1 and 3, well B2 test substance 2 and 3. Alternatively, every well may contain test substance x, with individual wells containing a panel of additional test substances.
In other options, a population of fish in a petri dish or a tank may be employed and treated together, e.g. via addition of one or more or a combination of test substances in the water. […]

As to `C[C@H]1c2cccc(O)c2C(=O)C2=C(O)[C@]3(O)C(=O)C(C(N)=O)=C(O)[C@@H](N(C)C)[C@@H]3[C@@H](O)[C@@H]21` [Doxycycline, doxycycline], the toxicity entry in data set [1] is “no apparent toxicity”.
With `CN1C(=O)CN=C(c2ccccc2)c2cc(Cl)ccc21` [diazepam], the “concentration showing therapeutic effects” value in the data set on fish turned out to be 35 µM.
